Test results from US8071645B2, “Systems and methods for treating human inflammatory and proliferative diseases and wounds, with fatty acid metabolism inhibitors and/or glycolytic inhibitors” (The Regents of the University of Colorado, priority 2003, dated 2011).

Columns and labels:
HL60 MDR cells = test: % death of HL60 MDR cells by flow cytometry; format: cell-based, human; settings: HL60 MDR
Description: Dot plots as a function of live versus dead cells. The cells were cultured at a concentration of 0.5 to 1 million cells per ml. Cells were untreated or treated with etomoxir or 2-deoxy-D-glucose at a concentration of 2.5 mM at the indicated concentrations for either 24 or 48 hours. In additional experiments, under each of these culture conditions, the cells were cultured for 24 hours at which time point, polyclonal anti-UCP-2 was added at a 1:1000 dilution of stock provided by Alpha Diagnostics, San Antonio, Tex. Cells were harvested and analyzed by flow cytometry. Each dot on the dot plots of FIGS. 1, 3, 5, 7, 9, and 11 represents one cell. Five thousand cells were assessed for forward scatter (FS), as a function of cell size, versus side scatter (SS), as a function of cellular granularity. The upper ellipse represents live cells by these criterion and the lower ellipse in each dot plot represents the dead cells.
Statistical Analysis, Percents, and Geometric Mean Values Percents. Gating is a tool provided by Cell Quest software and allows for the analysis of a certain population of cells. Gating around both the live and dead cell populations gave a percent of the cell numbers that was in each population. After the gates were drawn, a percent value of dead cells was calculated by taking the number of dead cells divided by the number of total cells and multiplying by one hundred.
This example illustrates an embodiment of the invention, where multi-drug resistant cancer cells were exposed to compositions of the invention. Analysis of the cells was performed using flow cytometry. The flow cytometry experiments were performed as follows. The cells were harvested, counted, and resuspended as described above. For DNA staining, the cells were washed and resuspended in ice-cold PBS and fixed by the dropwise addition of 95% ethanol. The cells were then incubated for 30 minutes on ice, washed, and resuspended in PBS containing 1% formaldehyde and 0.01% Tween. The cells were incubated with 50 units of DNAse and washed with PBS containing 5% DNAse. The cells were then incubated with anti DNA Fab (166, kind gift of Dr. Susan Wallace, University of Vermont), then washed and stained with a fluorescein conjugated second step anti-mouse immunoglobulin. The cells were then washed and resuspended in PBS/3% BSA/1% formaldehyde. The cells were stained for intracellular H2O2 using 6-carboxy-2′,7′-dichlorodihydrofluorescein diacetate (DCF-DA, Molecular Probes, Eugene, Oreg.). The cells were incubated with 1 mM DCF-DA for 20 minutes, washed twice in PBS containing 5% fetal calf serum and analyzed using flow cytometry. The mitochondrial membrane potential was assessed using MitoTracker Red (CM-H2XROS, Molecular Probes, Eugene, Oreg.). The cells were resuspended in warm (37° C.) PBS containing a final concentration of 0.5 micromolar of dye. The cells were then incubated for 30 minutes, pelleted, and resuspended in prewarmed medium for analysis. The data was acquired on a Coulter Elite Epics or Excel flow cytometer (Coulter, Hialeah, Fla.) and analyzed with CellQuest software, (Becton Dickinson, San Jose, Calif.). […] Each sample population was classified for cell size (forward scatter) and complexity (side scatter), gated on a population of interest and evaluated using 40,000 cells. Each figure describing flow cytometric data represents one of at least four replicate experiments.
All cell lines in this example were cultured in RPMI 1640 culture medium. The medium was supplemented with 5% fetal bovine serum (“FBS”), 2 mM L-Glutamine, 500 units/mL pennicillin/500 micrograms/mL of streptomycin, 10 mM HEPES Buffer, 10^−5 M 2-mercaptoethanol (“2-ME”), 1 mM MEM Sodium Pyruvate, and 0.04 micrograms/mL of Gentamicin (All reagents from Gibco BRL). The cells were maintained at 37° C. in a humidified atmosphere under 5% CO2 in air using standard cell culture techniques known to those of ordinary skill in the art. […]

L1210 DDP cells = test: mitochondrial membrane potential (MitoTracker) of L1210 DDP cells; format: cell-based; settings: 24 hours of incubation, FIG. 11
Description: Flow Cytometry. Cells were harvested, counted, and resuspended at 10^6 cells/100 μl of PBS containing 2.5% fetal calf serum in preparation for flow cytometric analysis. Cells were stained for intracellular H202 using 6-carboxy-2′,7′-dichlorodihydrofluorescein diacetate (DCF-DA, Molecular Probes, Eugene, Oreg.). Briefly, cells were incubated at 37° with 1 mM DCF-DA for 20 minutes, washed twice in PBS containing 2.5% fetal calf serum and analyzed flow cytometrically. Mitochondrial membrane potential was assessed using Mitotracker Red (CM-H2XROS, Molecular Probes, Eugene, Oreg.). […] The cells were incubated at 37° for 20 minutes, washed twice in PBS containing 2.5% fetal calf serum and analyzed flow cytometrically. Data were acquired on a Coulter Elite Epics or Excel flow cytometer (Coulter, Hialeah, Fla.) and analyzed with CellQuest software, (Becton Dickinson, San Jose, Calif.). […] Each sample population was classified for cell size (forward scatter) and complexity (side scatter), gated on a population of interest and evaluated using 5,000 cells. […]
We measured the effects of etomoxir on metabolism by measuring mitochondrial membrane potential with a fluorescent dye (Mitotracker Red, Molecular Probes, Eugene, Oreg.) which fluoresces as a function of mitochondrial potential. […]

Structure (SMILES): CCOC(=O)C1(CCCCCCOc2ccc(Cl)cc2)CO1 (stereo not drawn) [etomoxir, 2-(6-(4-chlorophenoxy)-hexyl)-oxirane-2-carboxylic acid ethyl ester]
- percent of cell deaths (HL60 MDR cells; 24 hours, 2-deoxy-D-glucose at 2.5 mM, etomoxir as in FIG. 27): 11%
- percent of cell deaths (HL60 MDR cells; 48 hours, concentrations as in FIG. 31): 14%
- mitochondrial membrane potential (MitoTracker) (L1210 DDP cells): increase
